Patent US6465646B1, “1-alkoxy and 1-acyloxy substituted cyclohex-1-ene compounds and sulfur and 1-alkoxycarbonyl analogs having retinoid-like biological activity” (Allergan, Inc., priority 1999, dated 2002)

System: ornithine decarboxylase (ODC)
Assay: Ornithine decarboxylase (ODC) assay: inhibition of TPA induction of ODC activity
Format: cell-based
Excerpt: A classic measure of retinoic acid activity involves measuring the effects of refinoic acid on ornithine decarboxylase (ODC). The original work on the correlation between retinoic acid and decrease in cell proliferation was done by Verma & Boutwell, Cancer Research, 1977,37, 2196-2201. That reference discloses that ornithine decarboxylase activity increased precedent to polyamine biosynthesis. It has been established elsewhere that increases in polyamine synthesis can be correlated or associated with cellular proliferation. Thus, if ODC activity could be inhibited, cell hyperproliferation could be modulated. Although all cases for ODC activity increases are unknown, it is known that 12-O-tetradecanoylphorbol-13-acetate (TPA) induces ODC activity. Retinoic acid inhibits this induction of ODC activity by TPA. […] “IC60” is that concentration of the test compound which causes 60% inhibition in the ODC assay. By analogy, “IC80”, for example, is that concentration of the test compound which causes 80% inhibition in the ODC assay.

| SMILES | IC80 (footnote 1: IC80, read-out: IC80 (concentration of the test compound which causes 80% inhibition in the ODC assay)) [nM] | IC60 (concentration of the test compound which causes 60% inhibition in the ODC assay) (footnote 2: IC60) |
| --- | --- | --- |
| CCOC(=O)c1ccc(C#C/C=C/C2=C(O[Si](C)(C)C)CCCC2(C)C)cc1 [Compound 1, Ethyl (±)-(E)-4-(4-(6,6-dimethyl-2-(trimethylsily)oxycyclohex-1-enyl)but-3-en-1-yn-yl)benzoate] | 0.46 | – |
| CCOC(=O)c1ccc(C#C/C=C/C2=C(C(=O)OC)CCCC2(C)C)cc1 [Compound 6, Ethyl (E)-4-(4-(6-Carbomethoxy-2,2-dimethylcyclohex-1-enyl)but-3-en-1-yn-yl)benzoate] | – | 0.3^2 nanomolar |
